Common to all, as to assay: stopped-flow CO2 hydrase assay
What all share (format): biochemical

In one experiment the target is T1, hCA XII (Homo sapiens, UniProt O43570).
T1 construct: gene CA12; recombinant, obtained in-house
An excerpt:
stopped-flow CO2 hydrase assay on hCA XII

In another experiment the target is T2, hCA IX (Homo sapiens, UniProt Q16790).
T2 construct: gene CA9; recombinant, obtained in-house
From the text: stopped-flow CO2 hydrase assay on hCA IX

Another experiment deals with T3, hCA I (Homo sapiens, UniProt P00915).
T3 construct: gene CA1; recombinant, obtained in-house
T3 sequence (P00915 2-261): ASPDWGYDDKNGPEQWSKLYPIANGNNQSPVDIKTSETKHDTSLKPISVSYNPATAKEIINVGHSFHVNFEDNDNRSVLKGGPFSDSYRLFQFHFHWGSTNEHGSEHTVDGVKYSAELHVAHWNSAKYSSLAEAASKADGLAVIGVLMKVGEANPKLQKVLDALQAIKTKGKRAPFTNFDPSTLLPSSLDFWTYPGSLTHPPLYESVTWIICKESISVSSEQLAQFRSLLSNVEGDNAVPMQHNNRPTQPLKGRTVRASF
An excerpt: stopped-flow CO2 hydrase assay on hCA I

The target in a further experiment is T4, hCA II (Homo sapiens, UniProt P00918).
T4 construct: gene CA2; recombinant, obtained in-house
An excerpt:
stopped-flow CO2 hydrase assay on hCA II

Setting [1] is: CO2 hydration, mean of […] assays.

Where two headings read alike, the source gives them in different places.

T1 sequence (O43570 25-354): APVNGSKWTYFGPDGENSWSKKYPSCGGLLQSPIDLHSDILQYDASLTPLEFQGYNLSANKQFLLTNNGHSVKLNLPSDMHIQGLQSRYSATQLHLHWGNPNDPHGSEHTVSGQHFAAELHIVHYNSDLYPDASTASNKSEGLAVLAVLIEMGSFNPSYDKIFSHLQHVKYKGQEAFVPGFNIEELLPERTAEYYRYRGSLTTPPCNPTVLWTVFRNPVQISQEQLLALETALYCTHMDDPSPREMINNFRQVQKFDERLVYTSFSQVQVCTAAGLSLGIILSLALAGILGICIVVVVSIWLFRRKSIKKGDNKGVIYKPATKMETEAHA

Take `NS(=O)(=O)c1ccc(CCn2c(SCc3ccc([N+](=O)[O-])cc3)nc3ccccc3c2=O)cc1` [compound 11, 4-(2-(2-((4-Nitrobenzyl)thio)-4-oxoquinazolin-3(4H)-yl)ethyl)benzenesulfonamide]: the Ki was found to be 25.6 nM at hCA XII and 19.3 nM at hCA IX (setting [1]).

Consider `NS(=O)(=O)c1ccc(CCn2c(SCc3ccc(Cl)cc3)nc3ccccc3c2=O)cc1` [compound 7, 4-(2-(2-((4-Chlorobenzyl)thio)-4-oxoquinazolin-3(4H)-yl)ethyl)benzenesulfonamide], for which the Ki on hCA XII was found to be 65.6 nM; on hCA IX, 34.2 nM.

For `Cc1ccc(CSc2nc3ccccc3c(=O)n2CCc2ccc(S(N)(=O)=O)cc2)cc1` [compound 10, 4-(2-(2-((4-Methylbenzyl)thio)-4-oxoquinazolin-3(4H)-yl)ethyl)benzenesulfonamide], the results for the Ki at hCA XII and on hCA IX were 28.2 nM and 57.1 nM, respectively.

Consider `NS(=O)(=O)c1ccc(CCn2c(SCc3ccccc3)nc3ccccc3c2=O)cc1` [compound 5, 4-(2-(2-(Benzylthio)-4-oxoquinazolin-3(4H)-yl)ethyl)benzenesulfonamide], for which the Ki at hCA XII was 38.4 nM; on hCA IX, 50.7 nM.

`CSc1nc2ccccc2c(=O)n1CCc1ccc(S(N)(=O)=O)cc1` [compound 2, 4-(2-(2-(Methylthio)-4-oxoquinazolin-3(4H)-yl)ethyl)benzenesulfonamide]: the Ki came to 3.1 nM at hCA XII and 9.5 nM on hCA IX.

As for `N#CCSc1nc2ccccc2c(=O)n1CCc1ccc(S(N)(=O)=O)cc1` [compound 4, 4-(2-(2-((Cyanomethyl)thio)-4-oxoquinazolin-3(4H)-yl)ethyl)benzenesulfonamide], the results for the Ki at hCA XII and on hCA IX were 8.6 nM and 12.6 nM, respectively.

As for `NS(=O)(=O)c1ccc(CCn2c(SCCN3CCCCC3)nc3ccccc3c2=O)cc1` [compound 12, 4-(2-(4-Oxo-2-((2-(piperidin-1-yl)ethyl)thio)quinazolin-3(4H)-yl)ethyl)benzenesulfonamide], the results for the Ki at hCA XII, at hCA I and at hCA IX were 20.2 nM, 532 nM and 22.4 nM, respectively.

`N#Cc1ccc(CSc2nc3ccccc3c(=O)n2CCc2ccc(S(N)(=O)=O)cc2)cc1` [compound 8, 4-(2-(2-((4-Cyanobenzyl)thio)-4-oxoquinazolin-3(4H)-yl)ethyl)benzenesulfonamide]: the Ki on hCA XII came out at 17.6 nM; at hCA IX, 47.3 nM.

Turning to `NS(=O)(=O)c1ccc(CCn2c(SCc3ccc(Br)cc3)nc3ccccc3c2=O)cc1` [compound 6, 4-(2-(2-((4-Bromobenzyl)thio)-4-oxoquinazolin-3(4H)-yl)ethyl)benzenesulfonamide], the Ki on hCA XII was 57 nM; on hCA IX, 64.1 nM.

Regarding `NS(=O)(=O)c1ccc(CCn2c(SCc3ccc(F)cc3)nc3ccccc3c2=O)cc1` [compound 9, 4-(2-(2-((4-Fluorobenzyl)thio)-4-oxoquinazolin-3(4H)-yl)ethyl)benzenesulfonamide], the Ki stood at 17.2 nM at hCA XII (setting [1]) and 28.9 nM on hCA IX.

With `CCSc1nc2ccccc2c(=O)n1CCc1ccc(S(N)(=O)=O)cc1` [compound 3, 4-(2-(2-(Ethylthio)-4-oxoquinazolin-3(4H)-yl)ethyl)benzenesulfonamide], the Ki at hCA XII is 3.9 nM; at hCA IX it was 7.1 nM.

Turning to `NS(=O)(=O)c1ccc(CCn2c(SCCCN3C(=O)c4ccccc4C3=O)nc3ccccc3c2=O)cc1` [compound 13, 4-(2-(2-((3-(1,3-Dioxoisoindolin-2-yl)propyl)thio)-4-oxoquinazolin-3(4H)-yl)ethyl)benzenesulfonamide], the Ki was 71.4 nM at hCA XII, 86.6 nM at hCA II, 321 nM at hCA I and 93.6 nM on hCA IX.

For orientation: Ki means a dissociation constant, usually derived from enzyme kinetics or from competition with a known ligand.

Source of the values: paper PMC7034075, “Exploring structure-activity relationship of S-substituted 2-mercaptoquinazolin-4(3H)-one including 4-ethylbenzenesulfonamides as human carbonic anhydrase inhibitors” (Journal of Enzyme Inhibition and Medicinal Chemistry, 2020).
